In brackets after ≈: the same amount, converted by molar mass. Where two headings read alike, the source gives them in different places.
Assays:
Str. pyogenes A-9604 = assay: MIC, tube dilution, Streptococcus pyogenes A9604; type: cell-based; details: Streptococcus pyogenes, A9604, Str. pyogenes A9604; overnight 37° C., Nutrient Broth; read-out: Minimum Inhibitory Concentration (M.I.C.)
From the text: (§1) Representative compounds of the present invention were subjected to in vitro antibiotic screening against a variety of microorganisms.

[1] = test system: Staph. aureus A-9537 and 50% serum; assay: MIC, tube dilution, Staph. aureus A9537 + 50% serum; type: cell-based, Staphylococcus aureus; details: Staphylococcus aureus, overnight 37° C., read-out: Minimum Inhibitory Concentration (M.I.C.)
From the text: as §1

[2] = test system: Staph. aureus (Pen-Res) A-9606; assay: MIC, tube dilution, Staphylococcus aureus A9606 (Pen-Res); type: cell-based; details: Staphylococcus aureus, Staph. aureus A9606 (Pen-Res); overnight 37° C.; read-out: Minimum Inhibitory Concentration (M.I.C.)
From the text: as §1

[3] = test system: Staph. aureus (Meth-Res) A-15097; assay: MIC, tube dilution, Staphylococcus aureus A15097 (Meth-Res); type: cell-based; details: Staphylococcus aureus, Staph. aureus A15097 (Meth-Res); overnight 37° C.; read-out: Minimum Inhibitory Concentration (M.I.C.)
From the text: as §1

Str. faecalis A-20688 = assay: MIC, tube dilution, Streptococcus faecalis A20688; type: cell-based; details: Enterococcus faecalis, A20688, Str. faecalis A20688; overnight 37° C.; read-out: Minimum Inhibitory Concentration (M.I.C.)
From the text: as §1

E. coli A-15119 = assay: MIC, tube dilution, Escherichia coli A15119; type: cell-based; details: Escherichia coli, A15119, E. coli A15119; overnight 37° C.; read-out: Minimum Inhibitory Concentration (M.I.C.)
From the text: as §1

E. coli A-20341-1 = assay: MIC, tube dilution, Escherichia coli A20341-1; type: cell-based; details: Escherichia coli, A203411; E. coli A20341-1; overnight 37° C.; read-out: Minimum Inhibitory Concentration (M.I.C.)
From the text: as §1

K. pneumoniae A-15130 = assay: MIC, tube dilution, Klebsiella pneumoniae A15130; type: cell-based; details: Klebsiella pneumoniae, A15130, K. pneumoniae A15130; overnight 37° C.; read-out: Minimum Inhibitory Concentration (M.I.C.)
From the text: as §1

[4] = test system: Klebsiella species A20468; assay: MIC, tube dilution, Klebsiella species A20468; type: cell-based; details: Klebsiella species (K. pneumoniae) A20468; overnight 37° C.; read-out: Minimum Inhibitory Concentration (M.I.C.)
From the text: as §1

Pr. morganii A-15153 = assay: MIC, tube dilution, Proteus morganii A15153; type: cell-based; details: Morganella morganii, A15153, Proteus morganii A15153; overnight 37° C.; read-out: Minimum Inhibitory Concentration (M.I.C.)
From the text: as §1

Ser. marcescens A-20019 = assay: MIC, tube dilution, Serratia marcescens A20019; type: cell-based; details: Serratia marcescens, A20019, Serratia marcescens A20019; overnight 37° C.; read-out: Minimum Inhibitory Concentration (M.I.C.)
From the text: as §1

Ent. cloacae A-9659 = assay: MIC, tube dilution, Enterobacter cloacae A9659; type: cell-based; details: Enterobacter cloacae, A9659, Enterobacter cloacae A9659; overnight 37° C.; read-out: Minimum Inhibitory Concentration (M.I.C.)
From the text: as §1

Ent. cloacae A-9656 = assay: MIC, tube dilution, Enterobacter cloacae A9656; type: cell-based; details: Enterobacter cloacae, A9656, Enterobacter cloacae A9656; overnight 37° C.; read-out: Minimum Inhibitory Concentration (M.I.C.)
From the text: as §1

Ps. aeruginosa A-9843A = assay: MIC, tube dilution, Pseudomonas aeruginosa A9843A; type: cell-based; details: Pseudomonas aeruginosa, A9843A, read-out: Minimum Inhibitory Concentration (M.I.C.), Pseudomonas aeruginosa A9843A; overnight 37° C.
From the text: as §1

Ps. aeruginosa A-21213 = assay: MIC, tube dilution, Pseudomonas aeruginosa A21213; type: cell-based; details: Pseudomonas aeruginosa A21213; overnight 37° C.; read-out: Minimum Inhibitory Concentration (M.I.C.)
From the text: as §1

Proteus vulgaris A21559 = assay: MIC, tube dilution, Proteus vulgaris A21559; type: cell-based; details: Proteus vulgaris, A21559, Proteus vulgaris A21559; overnight 37° C.; read-out: Minimum Inhibitory Concentration (M.I.C.)
From the text: as §1

E. coli A15119 = assay: In vivo protection of mice, lethal infection with E. coli A15119; details: Escherichia coli, IM, 2 treatments, 7.4 × 10^5 organisms, read-out: PD50
Protocol: (§2) Representative compounds of the present invention were also tested in vivo in mice and their PD50 (dose of compound in mg/kg required to protect 50% of the treated mice against an otherwise lethal infection of a micro-organism) values determined with respect to the test organisms shown below.

S. aureus A9606 = assay: In vivo protection of mice, lethal infection with S. aureus A9606; details: Staphylococcus aureus, IM, 2 treatments, 8 × 10^8 organisms, read-out: PD50
Protocol: as §2

K. pneumoniae A15130 = assay: In vivo protection of mice, lethal infection with K. pneumoniae A15130; details: Klebsiella pneumoniae, IM, 2 treatments, 1.2 × 10^3 organisms, read-out: PD50
Protocol: as §2

S. pneumoniae A9585 = assay: In vivo protection of mice, lethal infection with S. pneumoniae A9585; details: Streptococcus pneumoniae, A9585, im, 2 treatments, read-out: PD50
Protocol: as §2

Proteus mirabilis A9900 = assay: In vivo protection of mice, lethal infection with Proteus mirabilis A9900; details: IM, 2 treatments, 1.3 × 10^7 organisms, read-out: PD50
Protocol: as §2

S. pyogenes A9604 = assay: In vivo protection of mice, lethal infection with S. pyogenes A9604; details: Streptococcus pyogenes, A9604, im, 2 treatments, read-out: PD50
Protocol: as §2

S. aureus A9537 = assay: In vivo protection of mice, lethal infection with S. aureus A9537; details: Staphylococcus aureus, 2 treatments, read-out: PD50
Protocol: as §2

[5] = Mouse blood levels after intramuscular administration; type: in vivo; details: average of 6 mice, read-out: Mouse blood level
Protocol: Mouse blood levels after intramuscular administration of representative compounds of the present invention were determined and are reported in the table below.

Which MIC (Str. pyogenes A-9604) does the source give for `NCCCCC1=C(C(=O)O)N2C(=O)CC2S1` (centres unmarked) [Example 73, 2-(4'-Aminobutyl)-penem-3-carboxylic Acid] here?
The MIC was 0.25 µg/mL (≈ 1.03 µM).

What about the MIC [1] of the same compound?
The MIC was 1 µg/mL.

What about the MIC [2] of the same compound?
Its MIC is 32 µg/mL (≈ 132 µM).

And the MIC [3]?
Its MIC is 16 µg/mL (≈ 66 µM).

What about the MIC (Str. faecalis A-20688) of the same compound?
Its MIC is 32 µg/mL (≈ 132 µM).

What about the MIC (E. coli A-15119) of the same compound?
The MIC was 8 µg/mL (≈ 33 µM).

What about the MIC (E. coli A-20341-1) of the same compound?
The MIC was 125 µg/mL (≈ 516 µM).

And the MIC (K. pneumoniae A-15130)?
The MIC was 32 µg/mL (≈ 132 µM).

And the MIC [4]?
Its MIC is > 125 µg/mL.

And the MIC (Pr. morganii A-15153)?
The MIC was 32 µg/mL (≈ 132 µM).

And the MIC (Ser. marcescens A-20019)?
Its MIC is 16 µg/mL (≈ 66 µM).

And the MIC (Ent. cloacae A-9659)?
Its MIC is 63 µg/mL (≈ 260 µM).

What about the MIC (Ent. cloacae A-9656) of the same compound?
The MIC was 32 µg/mL (≈ 132 µM).

What about the MIC (Ps. aeruginosa A-9843A) of the same compound?
The MIC was > 125 µg/mL.

And the MIC (Ps. aeruginosa A-21213)?
The MIC was > 125 µg/mL.

What about the MIC (Proteus vulgaris A21559) of the same compound?
The MIC was 32 µg/mL (≈ 132 µM).

And the ED50 (E. coli A15119)?
The ED50 was 25 mg/kg.

And the ED50 (S. aureus A9606)?
Its ED50 is 6.3 mg/kg.

What about the ED50 (K. pneumoniae A15130) of the same compound?
Its ED50 is > 100 mg/kg.

And the ED50 (S. pneumoniae A9585; 3 × 10^4 organisms)?
Its ED50 is 1.2 mg/kg.

And the ED50 (S. pneumoniae A9585; 3.4 × 10^4 organisms)?
Its ED50 is 1.56 mg/kg.

And the ED50 (Proteus mirabilis A9900)?
Its ED50 is > 100 mg/kg.

And the ED50 (S. pyogenes A9604; 1.2 × 10^3 organisms)?
Its ED50 is 0.89 mg/kg.

What about the ED50 (S. pyogenes A9604; 8 × 10^3 organisms) of the same compound?
Its ED50 is 0.51 mg/kg.

What about the ED50 (S. aureus A9537; A9537, im, IM, 1 × 10^6 organisms) of the same compound?
The ED50 was 0.2 mg/kg.

What about the ED50 (S. aureus A9537; A9537, im, IM, 6.8 × 10^5 organisms) of the same compound?
Its ED50 is 0.2 mg/kg.

What about the ED50 (S. aureus A9537; A9537, im, IM, 8 × 10^5 organisms) of the same compound?
Its ED50 is 0.2 mg/kg.

And the ED50 (S. aureus A9537; A9537, po, PO, 1 × 10^6 organisms)?
The ED50 was 0.5 mg/kg.

And the concentration at 10 min ([5]; 10 minutes after IM 40 mg/kg)?
The concentration at 10 min was 37900 ng/mL.

What about the concentration at 20 min ([5]; 20 minutes after IM 40 mg/kg) of the same compound?
The concentration at 20 min was 30800 ng/mL.

What about the concentration at 0.5 h ([5]; 30 minutes after IM 40 mg/kg) of the same compound?
Its concentration at 0.5 h is 21200 ng/mL.

And the concentration at 0.75 h ([5]; 45 minutes after IM 40 mg/kg)?
Its concentration at 0.75 h is 13200 ng/mL.

What about the concentration at 1 h ([5]; 60 minutes after IM 40 mg/kg) of the same compound?
Its concentration at 1 h is 8400 ng/mL.

What about the concentration at 1.5 h ([5]; 90 minutes after IM 40 mg/kg) of the same compound?
Its concentration at 1.5 h is 3400 ng/mL.

And the concentration at 2 h ([5]; 120 minutes after IM 40 mg/kg)?
The concentration at 2 h was < 3000 ng/mL.
